“Also recorded” adds a separate entry of the source. Where two headings read alike, the source gives them in different places.
Columns and labels:
[1] = molecular target: T1, BuChE (E.C.3.1.1.8, from equine serum) (Equus caballus, UniProt P81908); assay: biochemical; format: biochemical; conditions: for cholinesterase inhibitory activity against eqBuChE: in words; for inhibitory activity for eqBuChE: up to 100 µM concentrations; for IC50: modified Ellman's method, read-out: eqBuChE IC50
T1 construct: BuChE (E.C.3.1.1.8, from equine serum); purchased Sigma-Aldrich and Fluka; host or cells: equine serum
Method: (§1) All the synthesized compounds were screened for their cholinesterase activity by Ellman’s spectrophotometric method with a slight modification. […] In brief, enzymatic reactions were accomplished in 96-well plates with total volume of 270 µL. Each well contained 0.1 M phosphate buffer (pH 7.4), 0.08 U/mL AChE or 0.05 U/mL BuChE and 0.3 mM of DTNB. In order to considering the influence of DMSO percentage on the enzymatic activity of AChE, different concentrations of the test sample were prepared in final concentrations of 0.2% DMSO. Then contents were incubated for 15 min at room temperature. The reaction was started with the addition of 20 µL of 0.45 mM substrate (ATCI/BTCI) into premixed enzyme/buffer/inhibitor mixture and monitored by using plate reader Synergy HT, Biotek, USA at 412 nm. The activity in the absence of sample compounds was considered as a blank. The percentage inhibition was calculated from (blank – test sample)/blank × 100.

[2] = molecular target: T2, AChE (E.C.3.1.1.7, from electric eel) (Electrophorus electricus, UniProt O42275); assay: biochemical; format: biochemical; conditions: for cholinesterase inhibitory activity against eeAChE: in words
T2 construct: purchased Sigma-Aldrich and Fluka
Method: as §1

eeAChE = molecular target: T3, eeAChE (Electrophorus electricus, UniProt O42275); assay: Kinetic study of eeAChE inhibition (Lineweaver-Burk); format: biochemical
T3 construct: purchased Sigma-Aldrich and Fluka
Method: Two fixed concentrations of the inhibitor (IC50, 2IC50) were chosen and for each concentration, the initial velocity (V) of the substrate ATCI/BTCI hydrolysis was measured at different concentrations in the range of 0–1.5 mM. […] Furthermore, Ki value was obtained by extrapolating the slopes of Lineweaver-Burk plots against inhibitor concentrations (Fig. 3B).
(§2) To determine the mechanisms of action of 5c and 7c, a series of experiments were performed at different concentrations of the substrate ATCI/BTCI. The inhibitor concentrations were (IC50, 2IC50). Substrates ATCI/BTCI concentrations were 0, 0.13, 0.3, 0.45, 0.675, 1.01 and 1.51 mM in all kinetic studies. Pre-incubation and measurement time were the same as reported in the perivous assay protocol. Kinetic characterization analysis was done spectrometrically at 412 nm.

eqBuChE = molecular target: T4, eqBuChE (Equus caballus, UniProt P81908); assay: Kinetic study of eqBuChE inhibition (Lineweaver-Burk); format: biochemical
T4 construct: BuChE (E.C.3.1.1.8, from equine serum); purchased Sigma-Aldrich and Fluka; host or cells: equine serum
Method: as §2

Aβ peptide = conditions: cited from earlier work
AChE = conditions: cited from earlier work
[3] = modified Ellman's method, read-out: eeAChE IC50

T1 sequence (P81908 whole entry): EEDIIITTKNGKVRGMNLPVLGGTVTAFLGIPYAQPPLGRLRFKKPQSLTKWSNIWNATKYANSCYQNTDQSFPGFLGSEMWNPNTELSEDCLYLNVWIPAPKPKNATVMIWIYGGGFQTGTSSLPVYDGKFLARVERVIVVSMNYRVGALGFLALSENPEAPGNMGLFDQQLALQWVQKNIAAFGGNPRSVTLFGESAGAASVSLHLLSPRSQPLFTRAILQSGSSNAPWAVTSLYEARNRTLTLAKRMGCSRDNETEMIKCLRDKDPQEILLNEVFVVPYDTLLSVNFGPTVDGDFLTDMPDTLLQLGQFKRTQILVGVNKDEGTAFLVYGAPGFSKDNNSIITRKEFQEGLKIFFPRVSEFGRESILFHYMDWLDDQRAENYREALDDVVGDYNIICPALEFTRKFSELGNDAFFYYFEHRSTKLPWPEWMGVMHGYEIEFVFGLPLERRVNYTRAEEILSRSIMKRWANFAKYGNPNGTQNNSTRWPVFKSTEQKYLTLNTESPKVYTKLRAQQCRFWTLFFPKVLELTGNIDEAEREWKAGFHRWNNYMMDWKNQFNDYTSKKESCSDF
T2 sequence (O42275 24-633): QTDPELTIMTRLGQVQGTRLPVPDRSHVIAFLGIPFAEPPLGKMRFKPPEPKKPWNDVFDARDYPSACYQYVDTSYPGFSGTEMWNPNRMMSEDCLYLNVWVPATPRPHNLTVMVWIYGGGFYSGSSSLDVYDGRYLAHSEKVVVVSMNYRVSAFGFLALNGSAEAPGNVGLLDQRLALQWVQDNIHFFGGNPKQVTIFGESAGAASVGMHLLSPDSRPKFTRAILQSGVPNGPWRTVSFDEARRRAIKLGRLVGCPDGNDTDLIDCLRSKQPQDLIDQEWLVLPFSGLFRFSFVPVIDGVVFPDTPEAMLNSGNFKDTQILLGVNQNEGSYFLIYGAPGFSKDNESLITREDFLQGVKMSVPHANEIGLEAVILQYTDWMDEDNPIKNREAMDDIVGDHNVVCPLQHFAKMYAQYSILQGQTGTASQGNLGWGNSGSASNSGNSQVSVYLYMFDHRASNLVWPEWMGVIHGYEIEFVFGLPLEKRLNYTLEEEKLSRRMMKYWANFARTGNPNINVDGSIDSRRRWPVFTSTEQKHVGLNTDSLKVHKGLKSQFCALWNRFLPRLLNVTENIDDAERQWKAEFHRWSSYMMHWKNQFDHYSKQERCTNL
T4 sequence (P81908 whole entry): as the sequence (P81908 whole entry) above
T3 sequence (O42275 24-633): as the sequence (O42275 24-633) above

**Q.** What does the source list for `O=Cc1ccc(OCCN2CCOCC2)cc1` [3b, 4-(2-morpholinoethoxy)benzaldehyde]?
**A.** cholinesterase inhibitory activity against eqBuChE [1]: did not show any cholinesterase inhibitory activity; cholinesterase inhibitory activity against eeAChE [2]: did not show any cholinesterase inhibitory activity

**Q.** Which results are given for `N#CC(C#N)=Cc1ccc(OCCN2CCCCC2)cc1` [5a]?
**A.** inhibitory activity for eqBuChE [1]: no inhibitory activity; IC50 [2]: 2800 ± 50 nM

**Q.** Which “cholinesterase inhibitory activity against eqBuChE” value [1] does the source give for `N#CC(C#N)=Cc1ccc(OCCN2CCOCC2)cc1` [5b] here?
**A.** The value was “did not show any cholinesterase inhibitory activity”.

**Q.** What about the “cholinesterase inhibitory activity against eeAChE” value [2] of the same compound?
**A.** The value was “did not show any cholinesterase inhibitory activity”.

**Q.** With `COC(=O)/C(C#N)=C/c1ccc(OCCN2CCCCC2)cc1` [5c] as the compound, how does the “inhibitory activity for eqBuChE” value [1] read?
**A.** Its value is “no inhibitory activity was found; also recorded: no inhibition”.

**Q.** What about the “selectivity for AChE than for BuChE” value ([2]; eeAChE vs eqBuChE IC50) of the same compound?
**A.** The value was “more than 200 fold”.

**Q.** What about the IC50 [2, 3] of the same compound?
**A.** Its IC50 is 500 nM.

**Q.** And the “type of inhibition of eeAChE” value (eeAChE; Lineweaver-Burk plots, substrate ATCI)?
**A.** The value was “mixed-type inhibition”.

**Q.** What about the Ki (eeAChE; slopes of Lineweaver-Burk plots against inhibitor concentrations) of the same compound?
**A.** Its Ki is 53 nM.

**Q.** Which IC50 [1] does the source give for `N#CC1=C(N)OC2=C(C(=O)CCC2)C1c1ccc(OCCN2CCCCC2)cc1` (centres unmarked) [7a, 2-Amino-5-oxo-4-(4-(2-(piperidin-1-yl)ethoxy)phenyl)-5,6,7,8-tetrahydro-4H-chromene-3-carbonitrile] here?
**A.** Its IC50 is 8.1 ± 0.5 µM.

**Q.** What about the IC50 [2, 3] of the same compound?
**A.** The IC50 was 20400 ± 9300 nM.

**Q.** For `CC1(C)CC(=O)C2=C(C1)OC(N)=C(C#N)C2c1ccc(OCCN2CCCCC2)cc1` (centres unmarked) [7c, 2-Amino-7,7-dimethyl-5-oxo-4-(4-(2-(piperidin-1-yl)ethoxy)phenyl)-5,6,7,8-tetrahydro-4H-chromene-3-carbonitrile], which “type of inhibition of eqBuChE” value (eqBuChE; Lineweaver-Burk plot, substrate BTCI) is on record?
**A.** Its value is “mixed-type of inhibition”.

**Q.** What about the Ki (eqBuChE; plot of slopes against inhibitor concentration) of the same compound?
**A.** The Ki was 156 nM.

**Q.** What about the IC50 [1] of the same compound?
**A.** The IC50 was 2.5 ± 0.6 µM.

**Q.** And the IC50 [2, 3]?
**A.** Its IC50 is 35600 ± 3700 nM.

**Q.** What does the source list for `Cc1cc2c(c(=O)o1)C(c1ccc(OCCN3CCCCC3)cc1)C(C#N)=C(N)O2` (centres unmarked) [7e, 2-Amino-7-methyl-5-oxo-4-(4-(2-(piperidin-1-yl)ethoxy)phenyl)-4H,5H-pyrano[4,3-b]pyran-3-carbonitrile]?
**A.** inhibitory activity for eqBuChE [1]: no inhibitory activity; IC50 [2, 3]: 2100 ± 50 nM

**Q.** Which “cholinesterase inhibitory activity against eqBuChE” value [1] does the source give for `Cc1cc2c(c(=O)o1)C(c1ccc(OCCN3CCOCC3)cc1)C(C#N)=C(N)O2` (centres unmarked) [7f, 2-Amino-7-methyl-4-(4-(2-morpholinoethoxy)phenyl)-5-oxo-4H,5H-pyrano[4,3-b]pyran-3-carbonitrile] here?
**A.** The value was “did not show any cholinesterase inhibitory activity”.

**Q.** What about the “cholinesterase inhibitory activity against eeAChE” value [2] of the same compound?
**A.** The value was “did not show any cholinesterase inhibitory activity”.

**Q.** With `COc1cc2c(cc1OC)C(=O)C(CC1CCN(Cc3ccccc3)CC1)C2` (centres unmarked) [Donepezil, donepezil] as the compound, how does the “inhibition of the aggregation of Aβ peptide” value (Aβ peptide; at 100 µM, as stated in introduction section) read?
**A.** The value was 22%.

**Q.** With `CC[N+](C)(CC)CCC[n+]1c(-c2ccccc2)c2cc(N)ccc2c2ccc(N)cc21` [Propidium, propidium] as the compound, how does the IC50 (AChE) read?
**A.** Its IC50 is […].

**Q.** What about the “effect on Aβ aggregation” value (Aβ peptide) of the same compound?
**A.** The value was “reduces the aggregation”.

**Q.** What does the source list for `CC[N+](C)(C)c1cccc(O)c1` [edrophonium]?
**A.** IC50 (AChE): 5.36 µM; effect on Aβ aggregation (Aβ peptide): fails to slow down the Aβ aggregation

— publication PMC6934599, “Phenoxyethyl Piperidine/Morpholine Derivatives as PAS and CAS Inhibitors of Cholinesterases: Insights for Future Drug Design” (Scientific Reports, 2019)
